Patent US9670223B2, “Compounds with super-aspirin effects” (SOLVOTRIN THERAPEUTICS LTD., priority 2011, dated 2017)
Where two headings read alike, the source gives them in different places. Blank lines part the entries; values can stand above or below the molecule they belong to.

Tests used:
[1] = tested on: platelet esterases (pNPA hydrolysis in WP); format: biochemical, human; details: for effect on NPA/PNA activity of WP or lysed platelets: 10-100 μM
Procedure: WP, PRP, PPP or lysed WP and 50 mM TrisHCl pH7.4 were incubated on a 96 well plate at 37° C. for 30 min. PNA at a final concentration of 3 mM was added to the plate and the change in absorbance at 405 nm was measured over a period of 10 min.
NPA hydrolyse activity could be due to CE (EC 3.1.1.1), BuChE, acetylcholinesterase (AChE, EC 3.1.1.7) or paraoxanase/arylesterase (PON, EC 3.1.8.1). To identify which esterases were involved in the hydrolysis of PNA, various inhibitors were incubated with the WP, PRP, PPP or lysed WP and 50 mM TrisHCl pH7.4 for 30 min at 37° C. prior to the addition of the PNA and the measurement of the change in absorbance at 405 nm. Physostigmine (100 μM), a cholinesterase inhibitor was used to check if BuChE/AChE played a role in the hydrolysis of PNA. […] PMSF (10-100 μM) was used to determine if serine proteases played any part in the hydrolysis of PNA by platelets. EDTA a calcium chelator was used to investigate the role played by PON esterases. BNPP a CE inhibitor of was used to investigate if carboxylesterases played a role in hydrolysis of PNA by platelets.

[2] = tested on: platelet rich plasma (PRP); assay: Collagen-induced platelet aggregation in platelet rich plasma (light aggregometry); format: cell-based, human; details: for inhibition of collagen induced aggregation by hydrolysis products: 10-300 μM in PRP, collagen 5 μg/ml
Procedure: (§1) PRP and WP (2.5×10^8 platelets ml^−1) were prepared from blood. Briefly 36 ml whole blood was collected into 4 ml of 3.15% sodium citrate; this was centrifuged at 250 ¥g for 20 min (with gentle acceleration and deceleration). At this point PRP, which had separated from white blood cells and red blood cells, was gently removed. When WP were required this PRP was centrifuged at 700 g for 10 min (with gentle acceleration and deceleration) in the presence of prostacyclin. The platelet-poor plasma (PPP) was removed and the platelet pellet was washed three times with Tyrode's buffer, before being re-suspended in Tyrode's buffer to a concentration of 2.5 ¥108 platelets/ml.
(§2) Platelet aggregation was measured by light aggregometry. […] Aggregation was initiated by the addition of agonists, and monitored by Aggro-Link software for at least 6 min.
(§3) To study the aggregatory potency of ADP, the concentration-response (0.3-10 μM) curves were generated. Collagen at different concentrations (2-5 μg/ml) was also used to induce platelet aggregation. Submaximal concentrations of agonists, i.e. the concentrations that gave approximately 95% of the maximal aggregation were used to study the effects of inhibitors of aggregation. Aspirin and aspirin prodrugs was incubated for various intervals prior to the addition of aggregating agents.
(§4) Eserine (in DMSO, 10 μM, giving a final concentration≦0.25% DMSO, which pilot studies had determined not to affect platelet aggregation) was preincubated with PRP or WP for 5 min in the aggregometer with stirring at 900 r.p.m. before the addition of test compounds (ST0701-05), which were incubated in PRP or WP for a further 10 min prior to the addition of an agonist (10 μM ADP or 5 μg/ml Collagen) to induce platelet aggregation.

TxB2 = TxB2 suppression after single oral gavage dose; format: in vivo, cynomolgus monkey; details: for TxB2 suppression (TxB2 levels as percentage of baseline), in words: Phase 2A, single oral gavage, ST0702 9.6 mg/kg, aspirin 4.2 mg/kg, 1 and 24 hours post dosing; for TxB2 suppression, % complete: Phase 2B, at 24 hours
[3] = Plasma pharmacokinetics of aspirin and metabolites after single oral gavage dose; format: in vivo, cynomolgus monkey
Procedure: The objectives of this study are to determine the comparative clinical efficacy as determined by TxB2 suppression with single oral gavage dose administration of Aspirin, ST0702 and ST0702 Micronised to the cynomolgus monkey. Aspirin pharmacokinetics were compared using Area Under the Curve (AUC) calculations.
The objectives of this study are to determine the comparative pharmacokinetics of ST0702 at 9.6 and 4.8 mg/Kg with single oral gavage dose administration to the cynomolgus monkey and to determine dose-response effects.
Although the half life of the Isosorbide 2 salicylate 5 nicotinate metabolite is very short in-vitro, we investigated the serum taken from Cynomologus Monkeys participating in Study 2B above. The comparative pharmacokinetics of Isosorbide 2 salicylate 5 nicotinate from Monkeys receiving a single oral gavage dose of micronized ST0702 at 9.6 and 4.8 mg/Kg were evaluated. The concentrations of the breakdown products of ISANA were quantified using LCMS methods.
Animals are acclimated to the oral gavage procedure for at least 3 days prior to the commencement of dose formulation administration. Deionized water is administered by oral gavage using a disposable catheter attached to a plastic syringe at a dose volume of 5 mL/kg. Animals are treated at approximately the same time on each dosing day. Dose formulations are administered by oral gavage using a disposable catheter attached to a plastic syringe. Following each daily dose, the gavage tube is rinsed with 6 mL of Ultra Pure water into the animal's stomach. Each animal will be dosed with a clean gavage tube on each dosing occasion. The dosing volume is 10 mL/kg. Each actual volume administered will be based on the most recent practical body weight of each animal. The dose formulations will be stirred continuously during dose administration.
Samples are mixed gently and placed on crushed wet ice until centrifugation, which are carried out as soon as practical. The samples are centrifuged for approximately 10 minutes in a refrigerated centrifuge (approximately 4° C.) at 2700 rpm. The resultant plasma are separated, transferred to uniquely labeled clear polypropylene tubes, and frozen immediately over dry ice and transferred to a freezer set to maintain −80° C. The plasma samples are transferred to the bioanalytical laboratory at the Testing Facility.
Plasma samples are analyzed for concentration of Aspirin, Salicylic Acid and Nicotinic Acid using a qualified analytical procedure. Analysis are performed by LC MS/MS under Analytical Procedure. Data collection is performed using Analyst from AB Sciex. […]

[4] = tested on: platelet rich plasma (PRP); assay: ADP-induced platelet aggregation in PRP; format: cell-based, human; details: ODQ 10 μM, ADP 10 μM, PRP
Procedure: as §1, §2, §3, §4
1H-[1,2,4]Oxadiazolo[4,3-a]quinoxalin-1-one (ODQ, dissolved in 100% DMSO, used at a final concentration of 10 μM, which gave a final concentration not more than 0.25% DMSO) was preincubated with PRP or WP for 5 min in the aggregometer with stirring at 900 r.p.m. before the addition of test compounds (ST0701-05), which were incubated in PRP or WP for a further 10 min prior to the addition of an agonist (10 μM ADP or 5 μg/ml collagen) to induce platelet aggregation.
Eserine (10 μM) was incubated with PRP for 5 min in the aggregometer with stirring at 900 r.p.m. before the addition of test compound ST0702 salicylate (500 μM), which was incubated in PRP for a further 10 min prior to the addition of the agonist ADP (10 μM) to induce platelet aggregation.

washed platelets (WP) = assay: Collagen-induced platelet aggregation in washed platelets (light aggregometry); format: cell-based, human; details: WP, collagen 2 μg/ml, PMSF up to 100 μM
Procedure: as §1, §2, §3
To study the involvement of plasma BuChE in the activation of ST0701, purified BuChE (3 U/ml) was incubated with WP for 5 min in the aggregometer with stirring at 900 r.p.m. before the addition of the test compounds ST0701 which was incubated with the WP for a further 10 min, prior to the addition of collagen (5 ug/ml).
as §4
Phenylmethylsulphonylfluoride (PMSF) 20, 50 and 100 μM dissolved in EtOH (<0.2% EtOH, which pilot studies had determined not to affect platelet aggregation) was preincubated in WP in the aggregometer for 5 min with stirring at 900 r.p.m. before the addition of test compound ST0702 to the WP, which was further incubated for 10 min prior to the addition of collagen (2 μg/ml) to induce platelet aggregation.

59M cells [5] = assay: Flow-mediated TCIPA using an ultrasound standing wave trap; format: cell-based, human; details: 500 μM, 59M cell cluster
From the text: The ultrasound trap had three essential features: a transducer (Ferroperm, Kvistgard, Denmark) in a housing of radial symmetry, an aqueous phase and a reflector that provided optical access from above. The trap was driven with a function generator (Hewlett Packard 33120A, UK). Microscopic observation occurred with a fast, high-resolution XM10 camera (Soft Imaging System, SIS, GmbH) mounted on an Olympus BX51M reflection epi-fluorescence microscope. Images were captured by a standard PC equipped with the Cell-D image acquisition software (Soft Imaging System, SIS, GmbH).
The experimental procedure was as follows: 59M cells were introduced into the trap, the acoustic field (2.13 MHz, 0.85 MPa) was initiated and cell clusters were allowed to form. Clusters remained levitated in suspension for 10 min. Washed platelets (2.5×10^8/ml) were introduced into the trap at a flow rate of 3 μl/min. Perfusion of washed platelets around the cluster proceeded following initial adhesion of platelets to the periphery of the cluster.
To study the effect of aspirin and aspirin prodrugs in TCIPA, washed platelets were pre-incubated for 10 min at room temperature with the inhibitors: aspirin, nicotinate, ISAS, ISMNA, ortho and meta (all at a concentration of 500 μM), prior to their introduction into the ultrasound trap. […] The cell cluster-platelet aggregate remained under microscopic observation for further 10 min (the upper time limit established in the current study) under continuous flow conditions. Further experiments were performed with ST0702 salicylate (500 μM).

P-selectin = assay: Flow cytometry of platelet P-selectin during TCIPA induced by 59M cells; format: cell-based, human; details: 300 μM
59M cells [6] = assay: Tumour cell-induced platelet aggregation (TCIPA), static conditions, 59M; format: cell-based, human; details: static, WP, 300 and 500 μM, 59M 1×10^3/ml
From the text: ISAS meanwhile is hydrolysed to aspirin and salicylic acid. […] The structure of platelet-tumor cell aggregates was studied using phase-contrast microscopy (Alonso-Escolano et al., 2004; Jurasz et al., 2001). […] Aliquots of each sample were then taken for phase-contrast microscopy examination using an Olympus CKX41 microscope (Olympus America Inc., […].). Photomicrographs were captured using a digital camera and MicroFire (Olympus America Inc.) software (Alonso-Escolano et al., 2004; Jurasz et al., 2001).

Compound: O=[N+]([O-])c1ccc(OP(=O)(O)Oc2ccc([N+](=O)[O-])cc2)cc1 [BNPP, bis-p-nitrophylphosphate]
effect on NPA/PNA activity of WP or lysed platelets [1]: no significant effect

Compound: O=C(O)CN(CCN(CC(=O)O)CC(=O)O)CC(=O)O [EDTA, ethylenediaminetetraacetic acid]
effect on NPA activity of WP [1]: no effect

Compound: CC(C)NP(=O)(NC(C)C)OP(=O)(NC(C)C)NC(C)C [Iso-OMPA, tetraisopropylpyrophosphoramide]
effect on NPA/PNA activity of WP or lysed platelets [1]: no effect

Compound: O[C@@H]1CO[C@H]2[C@@H]1OC[C@@H]2O [Isosorbide]
inhibition of collagen induced aggregation by hydrolysis products [2]: None of the hydrolysis products significantly inhibited aggregation

% of aspirin AUC ([3]; Phase 2B, Micronised ST0702 equimolar dose vs aspirin 4.2 mg/Kg): 62%
expected aspirin delivered in-vivo ([3]; Studies 2A and 2B together, relative to equivalent aspirin): 58-62%
Compound: CC(=O)Oc1ccccc1C(=O)OC1COC2C(OC(=O)c3cccnc3)COC12 (stereo not shown) [Micronized ST0702, isosorbide-2-aspirinate-5-nicotinate]
TxB2 suppression (TxB2 levels as percentage of baseline), in words (TxB2): no difference between aspirin and micronized ST0702
TxB2 suppression (TxB2 levels as percentage of baseline), in words (TxB2; listed as micronised ISANA): as effective as equimolar doses of aspirin
TxB2 suppression, % complete (TxB2; 4.8 mg/Kg oral): 47%
TxB2 suppression, % complete (TxB2; 9.6 mg/Kg oral): 70%

Compound: O=c1onc2cnc3ccccc3n12 [ODQ, 1H-[1,2,4]oxadiazolo[4,3-a]quinoxalin-1-one, reference compound]
inhibition of ADP induced aggregation when incubated alone [4]: some inhibition

Compound: O=S(=O)(F)Cc1ccccc1 [PMSF, phenylmethylsulphonyl fluoride]
effect of PMSF alone on collagen-induced aggregation (washed platelets (WP)): no significant effect
inhibition of NPA activity in WP ([1]; at 10 μM): 50%
inhibition of NPA activity in WP ([1]; at 100 μM): almost completely inhibited

Compound: O=C(O[C@H]1CO[C@H]2[C@@H]1OC[C@H]2OC(=O)c1ccccc1O)c1ccccc1O [isosorbide-2,5-disalicylate]
inhibition of collagen induced aggregation by hydrolysis products [2]: None of the hydrolysis products significantly inhibited aggregation
attenuation of aspirin's inhibitory effect on co-incubation ([2]; co-incubated with aspirin, 50-500 μM, non-significant trend): ≤ 10%

Compound: O=C(O[C@@H]1CO[C@H]2[C@H]1OC[C@@H]2O)c1ccccc1O [isosorbide-5-salicylate]
inhibition of collagen induced aggregation by hydrolysis products [2]: None of the hydrolysis products significantly inhibited aggregation

Compound: CC(=O)Oc1ccccc1C(=O)O[C@H]1CO[C@H]2[C@@H]1OC[C@H]2OC(=O)c1cccc(CO[N+](=O)[O-])c1 [metanitrate]
inhibition of TCIPA under flow conditions (platelet-tumour cell disruption) (59M cells [5]): did not interfere
59M-mediated increase in platelet surface P-selectin (P-selectin): significantly (P<0.05, n=4) reduce
inhibition of TCIPA induced by 59M (59M cells [6]): inhibited
inhibition of TCIPA induced by 59M (59M cells [6]; listed as Meta): able to inhibit

Compound: O=C(O)c1ccccc1O [salicylic acid]
inhibition of collagen induced aggregation by hydrolysis products [2]: None of the hydrolysis products significantly inhibited aggregation
